Measurements as given in patent US11873290B2, “Pyridazinone compounds and uses thereof” (Edgewise Therapeutics, Inc., priority 2018, dated 2024).

system: zebrafish model of DMD; test: not given; settings: embryos from zebrafish model of DMD; cited from earlier work

| Compound | Protection from pathological muscle derangement |
| --- | --- |
| Cc1ccc(S(=O)(=O)NCc2ccccc2)cc1 [BTS, N-benzyl-p-tolyl-sulfonamide] | protect muscles from pathological muscle derangement |

target: skeletal myofibrils (myosin ATPase activity); test: Skeletal Myofibril ATPase Assay; format: biochemical; settings: PK-LDH coupled, absorbance at 340 nm
Procedure, shortened: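 Skeletal myofibril ATPase measured by PK-LDH-coupled NADH depletion at 340 nm, read every 1.5–2 min for 1 h; pCa buffer with PIPES/CaCl2/EGTA, pH 7.0. Rate taken as max–min absorbance, normalised to 1% DMSO vehicle (100%) and no change (0%); IC50 from four-parameter fit, bottom ≥0.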

| Compound | IC50 [µM] |
| --- | --- |
| O=c1ccc(-c2cnc(OCC(F)(F)F)nc2)nn1Cc1cncc(F)c1 [Compound 6, 2-((5-fluoropyridin-3-yl)methyl)-6-(2-(2,2,2-trifluoroethoxy)pyrimidin-5-yl)pyridazine-3(2H)-one] | < 10 |
| CC(C)c1ncc(Cn2nc(-c3cnc(OCC(F)(F)F)nc3)ccc2=O)s1 [Compound 114, 2-((2-isopropylthiazol-5-yl)methyl)-6-(2-(2,2,2-trifluoroethoxy)pyrimidin-5-yl)pyridazine-3(2H)-one] | < 10 |
| CCOc1ccc(-c2ccc(=O)n(Cc3nc(-c4ccccn4)no3)n2)cc1 [Compound 304, 6-(4-ethoxyphenyl)-2-((3-(pyridin-2-yl)-1,2,4-oxadiazol-5-yl)methyl)pyridazin-3(2H)-one] | < 10 |
| CC(C)(C)COc1ncc(-c2ccc(=O)n(Cc3cncc(F)c3)n2)cn1 [Compound 104, 2((5-fluoropyridin-3-yl)methyl)-6-(2-(neopentyloxy)pyrimidin-5-yl)pyridazine-3(2H)-one] | < 10 |
| CCc1cncc(Cn2nc(-c3cnc(OCC(F)(F)F)nc3)ccc2=O)c1 [Compound 137, 2-((5-ethylpyridin-3-yl)methyl)-6-(2-(2,2,2-trifluoroethoxy)pyrimidin-5-yl)pyridazine-3(2H)-one] | < 10 |
| O=c1ccc(-c2cnc(OCC(F)(F)F)nc2)nn1Cc1cccc(O)n1 [Compound 46, 2-((6-hydroxypyridin-2-yl)methyl)-6-(2-(2,2,2-trifluoroethoxy)pyrimidin-5-yl)pyridazin-3(2H)-one] | > 100 |
| Cc1noc(Cn2nc(-c3ccc4c(c3)OCCCO4)ccc2=O)n1 [Compound 301, 6-(3,4-dihydro-2H-benzo[b][1,4]dioxepin-7-yl)-2-((3-methyl-1,2,4-oxadiazol-5-yl)methyl)pyridazin-3(2H)-one] | > 100 |
| NC(=O)c1cc(Cn2nc(-c3cnc(OCC(F)(F)F)nc3)ccc2=O)on1 [Compound 32, 5-((6-oxo-3-(2-(2,2,2-trifluoroethoxy)pyrimidin-5-yl)pyridazin-1(6H)-yl)methyl)isoxazole-3-carboxamide] | < 10 |
| O=c1ccc(-c2cnc(OCc3cncc(F)c3)nc2)nn1Cc1cncc(F)c1 [Compound 107, 6-(2-((5-fluoropyridin-3-yl)methoxy)pyrimidin-5-yl)-2-((5-fluoropyridin-3-yl)methyl)pyridazin-3(2H)-one] | > 100 |
| O=c1ccc(-c2ccc(OC(F)F)cc2)nn1Cc1nnc(C(F)(F)F)o1 [Compound 215, 6-(4-(difluoromethoxy)phenyl)-2-((5-(trifluoromethyl)-1,3,4-oxadiazol-2-yl)methyl)pyridazin-3(2H)-one] | 10 to 100 |
| O=c1ccc(-c2cnc(OCC(F)(F)F)nc2)nn1Cc1cc[n+]([O-])cc1 [Compound 81, 4-((6-oxo-3-(2-(2,2,2-trifluoroethoxy)pyrimidin-5-yl)pyridazin-1(6H)-yl)methyl)pyridine 1-oxide] | > 100 |
| CCOc1ncc(-c2ccc(=O)n(Cc3cncc(F)c3)n2)cn1 [Compound 68, 6-(2-ethoxypyrimidin-5-yl)-2-((5-fluoropyridin-3-yl)methyl)pyridazine-3(2H)-one] | < 10 |
| COc1ccc(-c2ccc(=O)n(Cc3nc(-c4ccccn4)no3)n2)cc1 [Compound 306, 6-(4-methoxyphenyl)-2-((3-(pyridin-2-yl)-1,2,4-oxadiazol-5-yl)methyl)pyridazin-3(2H)-one] | 10 to 100 |
| Cc1coc(Cn2nc(-c3ccc(OC(F)F)cc3)ccc2=O)n1 [Compound 218, 6-(4-(difluoromethoxy)phenyl)-2-((4-methyloxazol-2-yl)methyl)pyridazin-3(2H)-one] | 10 to 100 |
| O=c1ccc(-c2ccc(OC(F)F)cc2)nn1Cc1nc2ccccc2[nH]1 [Compound 230, 2-((1H-benzo[d]imidazol-2-yl)methyl)-6-(4-(difluoromethoxy)phenyl)-pyridazin-3(2H)-one] | > 100 |
| Cc1nnc(Cn2nc(-c3ccc(OC(F)F)cc3)ccc2=O)o1 [Compound 222, 6-(4-(difluoromethoxy)phenyl)-2-((5-methyl-1,3,4-oxadiazol-2-yl)methyl)pyridazin-3(2H)-one] | 10 to 100 |
